Among the data in patent publication US20170334899A1, “AMINO-SUBSTITUTED ISOTHIAZOLES” (Bayer Pharma Aktiengesellschaft, priority 2014, published 2017) are IC50 values, retold here.

Bounds are passed on as bounds.

One experiment has as its system HeLa. Kind of experiment: Proliferation assay (crystal violet), HeLa. The format is cell-based. To be noted: Homo sapiens, HeLa, 96 h, HeLa cells; 4 days incubation; crystal violet staining; read-out: IC50 inhibition of proliferation, HeLa. The method in brief:
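Absorbance at 595 nm of crystal-violet-stained cells after 4 days' exposure to 0.001–10 μM compound (0.5% DMSO). Values normalized to a day-0 plate (0%) and untreated cells (100%); IC50 by 4-parameter fit.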

In experiment [1] the test system is human cervical tumor cell line HeLa (ATCC CCL-2). In words: SAC-Formation - Nocodazole-Induced Assay. The format is cell-based. The following applies: Homo sapiens, HeLa, 24 h, HeLa cells, nocodazole 0.1 μg/ml together with test compound, decrease of mitotic cells (phospho-histone H3 Ser10). The method in brief: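 Loss of phospho-histone H3 Ser10-positive cells, counted against Hoechst-stained nuclei by high-content imaging, marked mitotic breakthrough. Compounds (0.005–20 μM, 0.5% DMSO) were co-dosed with 0.1 μg/ml nocodazole onto HeLa cells for 24 h at 37 °C. Curves were fitted with a four-parameter Hill equation.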

Regarding `Cc1nsc(Nc2cnc(C(F)(F)F)cn2)c1C(=O)Nc1ccc(F)c(OCCCN(C)CCC(F)(F)F)c1` [Example 303, N-(4-fluoro-3-{3-[methyl(3,3,3-trifluoropropyl)amino]propoxy}phenyl)-3-methyl-5-{[5-(trifluoromethyl)pyrazin-2-yl]amino}-1,2-thiazole-4-carboxamide], the IC50 is 400 nM in the experiment with HeLa and 51 nM in experiment [1].

For `Cc1nsc(Nc2cnc3ccccc3n2)c1C(=O)Nc1cccc(C(=O)NC(C)C)c1` [Example 253, N-[3-(isopropylcarbamoyl)phenyl]-3-methyl-5-(quinoxalin-2-ylamino)-1,2-thiazole-4-carboxamide], the results for the IC50 (with HeLa; in experiment [1]) were 3100 nM and 830 nM, respectively.

In the case of `Cc1nsc(Nc2cnc(C(F)(F)F)cn2)c1C(=O)Nc1ccc(F)c(OC2CCN(CC(F)(F)F)C2)c1` (stereo not drawn) [Example 315, N-(4-fluoro-3-{[1-(2,2,2-trifluoroethyl)pyrrolidin-3-yl]oxy}phenyl)-3-methyl-5-{[5-(trifluoromethyl)pyrazin-2-yl]amino}-1,2-thiazole-4-carboxamide], the values for the IC50 (with HeLa; in experiment [1]) were 780 nM and 4.3 nM, respectively.

With `CCN1CCN(C(=O)c2ccc(NC(=O)c3c(C)nsc3Nc3cncc(C(F)(F)F)n3)cc2)CC1` [Example 275, N-{4-[(4-ethylpiperazin-1-yl)carbonyl]phenyl}-3-methyl-5-{[6-(trifluoromethyl)pyrazin-2-yl]amino}-1,2-thiazole-4-carboxamide], the IC50 was over 10000 nM with HeLa and 840 nM in experiment [1].

As for `Cc1nsc(Nc2cncc(C(F)(F)F)n2)c1C(=O)Nc1ccc(C(=O)N2CCN(CC(F)(F)F)CC2)cc1` [Example 272, 3-methyl-N-(4-{[4-(2,2,2-trifluoroethyl)piperazin-1-yl]carbonyl}phenyl)-5-{[6-(trifluoromethyl)pyrazin-2-yl]amino}-1,2-thiazole-4-carboxamide], the IC50 in the experiment on HeLa was determined as 5800 nM; in experiment [1], 230 nM.

On to `Cc1nsc(Nc2cnc3ccccc3n2)c1C(=O)Nc1cccc(NS(=O)(=O)C2CCN(CC(F)F)CC2)c1` [Example 282, N-[3-({[1-(2,2-difluoroethyl)piperidin-4-yl]sulfonyl}amino)phenyl]-3-methyl-5-(quinoxalin-2-ylamino)-1,2-thiazole-4-carboxamide], for which the IC50 was 6200 nM in the experiment on HeLa and 6700 nM in experiment [1].

`Cc1nsc(Nc2ccc(C#N)cn2)c1C(=O)Nc1cccc(C(=O)NC2CC2)c1` [Example 250, 5-[(5-cyanopyridin-2-yl)amino]-N-[3-(cyclopropylcarbamoyl)phenyl]-3-methyl-1,2-thiazole-4-carboxamide]: the IC50 with HeLa was over 10000 nM; in experiment [1], 790 nM.

For `Cc1nsc(Nc2cncc(C(F)(F)F)n2)c1C(=O)Nc1ccc(C(=O)N2CCN(CCF)CC2)cc1` [Example 274, N-(4-{[4-(2-fluoroethyl)piperazin-1-yl]carbonyl}phenyl)-3-methyl-5-{[6-(trifluoromethyl)pyrazin-2-yl]amino}-1,2-thiazole-4-carboxamide], the IC50 with HeLa is over 10000 nM; in experiment [1] it was 140 nM.

Turning to `Cc1nsc(Nc2cnc(C(F)(F)F)cn2)c1C(=O)Nc1ccc(OC2CCN(CCF)C2)nc1` (stereo not drawn) [Example 295, N-(6-{[1-(2-fluoroethyl)pyrrolidin-3-yl]oxy}pyridin-3-yl)-3-methyl-5-{[5-(trifluoromethyl)pyrazin-2-yl]amino}-1,2-thiazole-4-carboxamide], the IC50 with HeLa came to 380 nM; in experiment [1] it was 590 nM.

On to `Cc1nsc(Nc2cncc(C(F)(F)F)n2)c1C(=O)Nc1ccc(OCCCO)nc1` [Example 278, N-[6-(3-hydroxypropoxy)pyridin-3-yl]-3-methyl-5-{[6-(trifluoromethyl)pyrazin-2-yl]amino}-1,2-thiazole-4-carboxamide], for which the IC50 was determined as 2600 nM with HeLa and 190 nM in experiment [1].

In the case of `Cc1nsc(Nc2cnc(C(F)(F)F)cn2)c1C(=O)Nc1ccc(F)c(OCC2CCN(CCF)CC2)c1` [Example 309, N-(4-fluoro-3-{[1-(2-fluoroethyl)piperidin-4-yl]methoxy}phenyl)-3-methyl-5-{[5-(trifluoromethyl)pyrazin-2-yl]amino}-1,2-thiazole-4-carboxamide], the IC50 in the experiment on HeLa is 630 nM; in experiment [1], 130 nM.

Take `Cc1nsc(Nc2cnc(C(F)(F)F)cn2)c1C(=O)Nc1ccc(F)c(OCC2CCN(C(CF)CF)C2)c1` (stereo not drawn) [Example 320, N-(3-{[1-(1,3-difluoropropan-2-yl)pyrrolidin-3-yl]methoxy}-4-fluorophenyl)-3-methyl-5-{[5-(trifluoromethyl)pyrazin-2-yl]amino}-1,2-thiazole-4-carboxamide]: the IC50 in the experiment on HeLa amounted to 680 nM; in experiment [1] it was 55 nM.

In the case of `Cc1nsc(Nc2cnc3ccccc3n2)c1C(=O)Nc1cccc(NS(=O)(=O)C2CN(CC(F)F)C2)c1` [Example 286, N-[3-({[1-(2,2-difluoroethyl)azetidin-3-yl]sulfonyl}amino)phenyl]-3-methyl-5-(quinoxalin-2-ylamino)-1,2-thiazole-4-carboxamide], the IC50 in the experiment on HeLa came to 10000 nM; in experiment [1], 4100 nM.

As for `Cc1nsc(Nc2cnc(C(F)(F)F)cn2)c1C(=O)Nc1ccc(OC2CCN(C(CF)CF)C2)nc1` (stereo not drawn) [Example 313, N-(6-{[1-(1,3-difluoropropan-2-yl)pyrrolidin-3-yl]oxy}pyridin-3-yl)-3-methyl-5-{[5-(trifluoromethyl)pyrazin-2-yl]amino}-1,2-thiazole-4-carboxamide], the results for the IC50 (in the experiment on HeLa; in experiment [1]) were 620 nM and 140 nM, respectively.

Take `Cc1nsc(Nc2cnc(C(F)(F)F)cn2)c1C(=O)Nc1ccc(F)c(OCCCNCC(F)(F)F)c1` [Example 306, N-(4-fluoro-3-{3-[(2,2,2-trifluoroethyl)amino]propoxy}phenyl)-3-methyl-5-{[5-(trifluoromethyl)pyrazin-2-yl]amino}-1,2-thiazole-4-carboxamide]: the IC50 came to 570 nM in the experiment with HeLa and 24 nM in experiment [1].

In the case of `Cc1nsc(Nc2cnc3ccccc3n2)c1C(=O)Nc1cccc(NS(=O)(=O)C2CCN(C(=O)OC(C)(C)C)C2)c1` (stereo not drawn) [Example 290, tert-butyl 3-{[3-({[3-methyl-5-(quinoxalin-2-ylamino)-1,2-thiazol-4-yl]carbonyl}amino)phenyl]sulfamoyl} pyrrolidine-1-carboxylate], the IC50 in the experiment with HeLa amounted to 8800 nM; in experiment [1] it was 2000 nM.

`Cc1nsc(Nc2cncc(C(F)(F)F)n2)c1C(=O)Nc1ccc(F)c(OC2CCN(CC(F)(F)F)CC2)c1` [Example 267, N-(4-fluoro-3-{[1-(2,2,2-trifluoroethyl)piperidin-4-yl]oxy}phenyl)-3-methyl-5-{[6-(trifluoromethyl)pyrazin-2-yl]amino}-1,2-thiazole-4-carboxamide]: the IC50 in the experiment with HeLa amounted to 580 nM; in experiment [1] it was 47 nM.

`CCNC(=O)c1cccc(NC(=O)c2c(C)nsc2Nc2cnc3ccccc3n2)c1` [Example 251, N-[3-(ethylcarbamoyl)phenyl]-3-methyl-5-(quinoxalin-2-ylamino)-1,2-thiazole-4-carboxamide]: the results for the IC50 (in the experiment with HeLa; in experiment [1]) were 4500 nM and 1500 nM, respectively.

Take `Cc1nsc(Nc2cnc(C(F)(F)F)cn2)c1C(=O)Nc1ccc(OC2CCN(CCC(F)(F)F)C2)nc1` (stereo not drawn) [Example 298, 3-methyl-5-{[5-(trifluoromethyl)pyrazin-2-yl]amino}-N-(6-{[1-(3,3,3-trifluoropropyl)pyrrolidin-3-yl]oxy}pyridin-3-yl)-1,2-thiazole-4-carboxamide]: the IC50 in the experiment on HeLa was 330 nM; in experiment [1], 80 nM.

Consider `Cc1nsc(Nc2cnc3ccccc3n2)c1C(=O)Nc1cccc(NS(=O)(=O)C2CN(CCF)C2)c1` [Example 287, N-[3-({[1-(2-fluoroethyl)azetidin-3-yl]sulfonyl}amino)phenyl]-3-methyl-5-(quinoxalin-2-ylamino)-1,2-thiazole-4-carboxamide], for which the IC50 in the experiment on HeLa was determined as 9900 nM; in experiment [1], 7200 nM.

For `Cc1nsc(Nc2cncc(C(F)(F)F)n2)c1C(=O)Nc1ccc(C(=O)N2CCN(CC(F)F)CC2)cc1` [Example 273, N-(4-{[4-(2,2-difluoroethyl)piperazin-1-yl]carbonyl}phenyl)-3-methyl-5-{[6-(trifluoromethyl)pyrazin-2-yl]amino}-1,2-thiazole-4-carboxamide], the IC50 was found to be 7600 nM with HeLa and 1100 nM in experiment [1].

With `Cc1nsc(Nc2cnc(C(F)(F)F)cn2)c1C(=O)Nc1ccc(F)c(OCC2CCN(CC(F)F)CC2)c1` [Example 308, N-(3-{[1-(2,2-difluoroethyl)piperidin-4-yl]methoxy}-4-fluorophenyl)-3-methyl-5-{[5-(trifluoromethyl)pyrazin-2-yl]amino}-1,2-thiazole-4-carboxamide], the IC50 in the experiment with HeLa is 340 nM; in experiment [1] it was 31 nM.

In the case of `Cc1nsc(Nc2cnc3ccccc3n2)c1C(=O)Nc1cccc(NS(=O)(=O)C2CCCN(C(=O)OCc3ccccc3)C2)c1` (stereo not drawn) [Example 291, benzyl 3-{[3-({[3-methyl-5-(quinoxalin-2-ylamino)-1,2-thiazol-4-yl]carbonyl}amino)phenyl]sulfamoyl} piperidine-1-carboxylate], the IC50 with HeLa stood at 8900 nM; in experiment [1] it was 1400 nM.

Consider `Cc1nsc(Nc2cc(C#N)ccn2)c1C(=O)Nc1ccc(OC2CCNCC2)nc1` [Example 24, 5-[(4-Cyanopyridin-2-yl)amino]-3-methyl-N-[6-(piperidin-4-yloxy)pyridin-3-yl]-1,2-thiazole-4-carboxamide], for which the IC50 with HeLa was 10000 nM; in experiment [1] it was 20000 nM.
